Test results reported in patent US9708323B2, “Tricyclic compounds as alpha-7 nicotinic acetylcholine receptor ligands” (BRISTOL-MYERS SQUIBB COMPANY, priority 2014, dated 2017).

What follows are molecules tested against T1, α-7 nicotinic ACh receptor ion channel expressed in HEK 293 cells (Rattus norvegicus, UniProt Q05941) (assay: Ca2+-sensitive, fluorescence-based assay for α-7 nicotinic acetylcholine receptor channel function in mammalian cells (FLIPR)). Conditions: Table 2, agonist Ca2+ flux, read-out: FLIPR α7 (EC50).
T1 construct: expressed in transfected cells
T1 sequence (Q05941 23-502): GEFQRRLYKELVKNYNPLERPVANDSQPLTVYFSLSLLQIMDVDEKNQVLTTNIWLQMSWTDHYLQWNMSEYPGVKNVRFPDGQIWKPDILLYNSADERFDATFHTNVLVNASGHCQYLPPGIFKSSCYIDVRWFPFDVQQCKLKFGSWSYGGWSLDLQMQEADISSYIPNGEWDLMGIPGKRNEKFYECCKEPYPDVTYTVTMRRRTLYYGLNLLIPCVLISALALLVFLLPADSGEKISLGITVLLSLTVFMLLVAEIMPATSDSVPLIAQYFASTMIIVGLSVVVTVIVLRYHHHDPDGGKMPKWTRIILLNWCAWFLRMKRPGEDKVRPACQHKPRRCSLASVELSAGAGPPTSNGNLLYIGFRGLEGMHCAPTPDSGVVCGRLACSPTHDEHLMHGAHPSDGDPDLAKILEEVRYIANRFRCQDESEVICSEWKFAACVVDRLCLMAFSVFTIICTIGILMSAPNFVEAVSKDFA
Format: cell-based
Description: II) A Ca^2+-Sensitive, Fluorescence-Based Assay α-7 for Nicotinic Acetylcholine Receptor Channel Function in Mammalian Cells (“FLIPR”). Summary:
Lead compounds are evaluated for agonist activity at α-7, α3β4, α4αβ2, and α1β1δ1ε sub-types of nicotinic ACh receptor ion channels expressed in mammalian HEK 293 cells. Agonist potency and efficacy values are determined from kinetic fluorescence Ca^2+ influx measurements made using a 384 well FLIPR (Fluorescence Image Plate Reader). The utility of fluorescent indicators for measuring changes in intracellular divalent cation concentrations, particularly Ca^2+, for drug discovery endeavors is well documented (Rudiger, R., et al., Nature Reviews, 2003, 4:579-586; Gonzalez J. E., et al., Receptors and Channels, 2002, 8:283-295). In this assay, channel expressing HEK cell lines seeded in 384 well assay plates are loaded with a membrane permeant fluorescent Ca^2+ indicator dye, whose 510 nm green emission signal increases in response to elevation of intracellular Ca^2+ concentration. The basal fluorescence from the cells is monitored in real time, followed by the acute addition of test compounds. If the compound is an agonist at any of the non-selective cation channels, the latter open and allow the movement of extracellular Ca^2+ ions into the cell cytoplasm, where they bind to the Ca^2+ indicator dye, and produce an increase in fluorescence output signal, which is detected by a cooled CCD imaging camera.
Reagents: The acetomethoxy (AM) ester of the Ca^2+ indicator dye Fluo-4 was obtained from InVitrogen, (Carlsbad, Calif.). Acetylcholine and all buffer constituents were purchased from Sigma Chemical Company, St. Louis, Mo. G418 and Minimal Essential Medium were purchased from InVitrogen Life Technologies, Carlsbad, Calif. Fetal bovine serum was purchased from (InVitrogen, Carlsbad, Calif.).
HEK-293 cells were grown in Minimal Essential Medium containing 10% (v/v) fetal bovine serum at 37° C. in a 5% CO2 incubator. HEK-293 cells stably expressing the ion channels were grown in the same medium with the addition of 500 μg/ml G418.
HEK-293 cells expressing the ion channels of interest were plated in 384 well, black-walled, clear-bottomed, poly-D-lysine coated plates at a density of ˜20,000 cells/well in 20 μl of Minimal Essential Medium containing 10% (v/v) fetal bovine serum and incubated for 2 days at 29° C. in a 5% CO2 incubator. Prior to assay, cells were loaded with the Fluo-4 AM ester. Cell loading was accomplished by removing the culture medium and replacing it with 30 μl/well of the AM ester of the dye (5 μM) mixed with Hanks Balanced Salt Solution (#14175-095) containing 20 mM HEPES, 2.5 mM probenecid, 0.5 mM CaCl2, 1 mM MgCl2 and 10 μM atropine. Dye loading was allowed to proceed for 90 minutes at room temperature at which time the dye loading solution was removed and replaced with 40 μl/well of Hanks buffer. Cells loaded with dye were loaded onto a FLIPR384 (Molecular Devices, Sunnyvale, Calif.). Fluo-4 dye was excited using the 488 nm line of an argon laser. Emission was filtered using a 540+/−30 nm bandpass filter. For evaluation of the effects of test compounds using the Ca^2+ flux assay, compounds to be tested were provided in assay ready plates. For nicotinic receptor ion channel expressing cells, the assay was initiated by the addition of 20 μl/well of Hanks buffer containing test compounds. For all assays, data were collected at 1 Hz for 10 seconds (baseline), at which time the compound containing stimulus buffers are added, and further measurements collected at 0.33 Hz for 3 min.
The statistical robustness of the nicotinic receptor Ca^2+ flux assays is determined from blanks and totals wells. The totals wells define maximal channel activation for each compound test plate (Maximum efficacious dose of acetylcholine), and the blanks wells which contain matched DMSO only, define zero channel activation. […]

| SMILES | EC50 |
| --- | --- |
| O=C(c1n[nH]c2ccccc12)N1C[C@H]2C[N@]3CC[C@H]2[C@H]1C3 [Example 88, ((3R,3aR,6S,7aS)-hexahydro-3,6-methanopyrrolo[2,3-c]pyridin-1(2H)-yl)(1H-indazol-3-yl)methanone] | 0.39 µM |
| O=C(c1cc2ccccc2s1)N1C[C@H]2C[N@]3CC[C@H]2[C@H]1C3 [Example 89, benzo[b]thiophen-2-yl((3R,3aR,6S,7aS)-hexahydro-3,6-methanopyrrolo[2,3-c]pyridin-1(2H)-yl)methanone] | 18 µM |
| Cn1nc(C(=O)N2C[C@H]3C[N@]4CC[C@H]3[C@H]2C4)c2ccccc21 [Example 90, ((3R,3aR,6S,7aS)-hexahydro-3,6-methanopyrrolo[2,3-c]pyridin-1(2H)-yl) (1-methyl-1H-indazol-3-yl)methanone] | > 100 µM |
| Cn1cc(C(=O)N2C[C@H]3C[N@]4CC[C@H]3[C@H]2C4)c2ccccc21 [Example 91, ((3R,3aR,6S,7aS)-hexahydro-3,6-methanopyrrolo[2,3-c]pyridin-1(2H)-yl)(1-methyl-1H-indol-3-yl)methanone] | > 100 µM |
| O=C(c1n[nH]c2ccc(Cl)cc12)N1C[C@H]2C[N@]3CC[C@H]2[C@H]1C3 [Example 92, ((3R,3aR,6S,7aS)-hexahydro-3,6-methanopyrrolo[2,3-c]pyridin-1(2H)-yl)(5-chloro-1H-indazol-3-yl)methanone] | 0.7 µM |
| COc1ccc2c(C(=O)N3C[C@H]4C[N@]5CC[C@H]4[C@H]3C5)n[nH]c2c1 [Example 93, ((3R,3aR,6S,7aS)-hexahydro-3,6-methanopyrrolo[2,3-c]pyridin-1(2H)-yl)(6-methoxy-1H-indazol-3-yl)methanone] | 2.2 µM |
| O=C(c1cc2c(Cl)cccc2s1)N1C[C@H]2C[N@]3CC[C@H]2[C@H]1C3 [Example 94, 4-chlorobenzo[b]thiophen-2-yl((3R,3aR,6S,7aS)-hexahydro-3,6-methanopyrrolo[2,3-c]pyridin-1(2H)-yl)methanone] | > 100 µM |
| COc1cccc2[nH]nc(C(=O)N3C[C@H]4C[N@]5CC[C@H]4[C@H]3C5)c12 [Example 95, ((3R,3aR,6S,7aS)-hexahydro-3,6-methanopyrrolo[2,3-c]pyridin-1(2H)-yl)(4-methoxy-1H-indazol-3-yl)methanone] | > 100 µM |
| O=C(c1cc2cccc(Cl)c2s1)N1C[C@H]2C[N@]3CC[C@H]2[C@H]1C3 [Example 96, 7-chlorobenzo[b]thiophen-2-yl((3R,3aR,6S,7aS)-hexahydro-3,6-methanopyrrolo[2,3-c]pyridin-1(2H)-yl)methanone] | > 100 µM |
| O=C(c1nsc2ccccc12)N1C[C@H]2C[N@]3CC[C@H]2[C@H]1C3 [Example 97, benzo[d]isothiazol-3-yl((3R,3aR,6S,7aS)-hexahydro-3,6-methanopyrrolo[2,3-c]pyridin-1(2H)-yl)methanone] | 30 µM |
| O=C(c1ccc(Cl)cc1)N1C[C@H]2C[N@]3CC[C@H]2[C@H]1C3 [Example 98, (4-chlorophenyl) ((3R,3aR,6S,7aS)-hexahydro-3,6-methanopyrrolo[2,3-c]pyridin-1(2H)-yl)methanone] | > 100 µM |
| O=C(c1cc2ccccc2o1)N1C[C@H]2C[N@]3CC[C@H]2[C@H]1C3 [Example 99, benzofuran-2-yl((3R,3aR,6S,7aS)-hexahydro-3,6-methanopyrrolo[2,3-c]pyridin-1(2H)-yl)methanone] | 35 µM |

Same assay, conditions: Table 3, agonist Ca2+ flux, read-out: FLIPR α7 (EC50)

| SMILES | EC50 |
| --- | --- |
| O=C(c1n[nH]c2ccccc12)N1C[C@@H]2C[N@@]3CC[C@@H]2[C@@H]1C3 [Example 87, ((3S,3aS,6R,7aR)-hexahydro-3,6-methanopyrrolo[2,3-c]pyridin-1(2H)-yl)(1H-indazol-3-yl)methanone] | 0.37 µM |
| O=C(c1cc2ccccc2s1)N1C[C@@H]2C[N@@]3CC[C@@H]2[C@@H]1C3 [Example 100, benzo[b]thiophen-2-yl((3S,3aS,6R,7aR)-hexahydro-3,6-methanopyrrolo[2,3-c]pyridin-1(2H)-yl)methanone] | 11 µM |
| Cn1nc(C(=O)N2C[C@@H]3C[N@@]4CC[C@@H]3[C@@H]2C4)c2ccccc21 [Example 101, ((3S,3aS,6R,7aR)-hexahydro-3,6-methanopyrrolo[2,3-c]pyridin-1(2H)-yl)(1-methyl-1H-indazol-3-yl)methanone] | > 100 µM |
| Cn1cc(C(=O)N2C[C@@H]3C[N@@]4CC[C@@H]3[C@@H]2C4)c2ccccc21 [Example 102, ((3S,3aS,6R,7aR)-hexahydro-3,6-methanopyrrolo[2,3-c]pyridin-1(2H)-yl)(1-methyl-1H-indol-3-yl)methanone] | > 100 µM |
| O=C(c1n[nH]c2ccc(Cl)cc12)N1C[C@@H]2C[N@@]3CC[C@@H]2[C@@H]1C3 [Example 103, ((3S,3aS,6R,7aR)-hexahydro-3,6-methanopyrrolo[2,3-c]pyridin-1(2H)-yl)(5-chloro-1H-indazol-3-yl)methanone] | > 100 µM |
| COc1ccc2c(C(=O)N3C[C@@H]4C[N@@]5CC[C@@H]4[C@@H]3C5)n[nH]c2c1 [Example 104, ((3S,3aS,6R,7aR)-hexahydro-3,6-methanopyrrolo[2,3-c]pyridin-1(2H)-yl)(6-methoxy-1H-indazol-3-yl)methanone] | > 100 µM |
| O=C(c1n[nH]c2ccc(Br)cc12)N1C[C@@H]2C[N@@]3CC[C@@H]2[C@@H]1C3 [Example 105, ((3S,3aS,6R,7aR)-hexahydro-3,6-methanopyrrolo[2,3-c]pyridin-1(2H)-yl)(5-bromo-1H-indazol-3-yl)methanone] | > 100 µM |
| O=C(c1cc2c(Cl)cccc2s1)N1C[C@@H]2C[N@@]3CC[C@@H]2[C@@H]1C3 [Example 106, 4-chlorobenzo[b]thiophen-2-yl((3S,3aS,6R,7aR)-hexahydro-3,6-methanopyrrolo[2,3-c]pyridin-1(2H)-yl)methanone] | > 100 µM |
| COc1cccc2[nH]nc(C(=O)N3C[C@@H]4C[N@@]5CC[C@@H]4[C@@H]3C5)c12 [Example 107, ((3S,3aS,6R,7aR)-hexahydro-3,6-methanopyrrolo[2,3-c]pyridin-1(2H)-yl)(4-methoxy-1H-indazol-3-yl)methanone] | 30 µM |
| O=C(c1cc2cccc(Cl)c2s1)N1C[C@@H]2C[N@@]3CC[C@@H]2[C@@H]1C3 [Example 108, 7-chlorobenzo[b]thiophen-2-yl((3S,3aS,6R,7aR)-hexahydro-3,6-methanopyrrolo[2,3-c]pyridin-1(2H)-yl)methanone] | > 100 µM |
| O=C(c1n[nH]c2cc(Cl)ccc12)N1C[C@@H]2C[N@@]3CC[C@@H]2[C@@H]1C3 [Example 109, ((3S,3aS,6R,7aR)-hexahydro-3,6-methanopyrrolo[2,3-c]pyridin-1(2H)-yl)(6-chloro-1H-indazol-3-yl)methanone] | > 100 µM |
| COc1ccc2[nH]nc(C(=O)N3C[C@@H]4C[N@@]5CC[C@@H]4[C@@H]3C5)c2c1 [Example 110, ((3S,3aS,6R,7aR)-hexahydro-3,6-methanopyrrolo[2,3-c]pyridin-1(2H)-yl)(5-methoxy-1H-indazol-3-yl)methanone] | > 100 µM |
| O=C(c1nsc2ccccc12)N1C[C@@H]2C[N@@]3CC[C@@H]2[C@@H]1C3 [Example 111, benzo[d]isothiazol-3-yl((3S,3aS,6R,7aR)-hexahydro-3,6-methanopyrrolo[2,3-c]pyridin-1(2H)-yl)methanone] | 36 µM |
